Experimental findings from patent US5468734A, “Prophylactic and remedial preparation for diseases attendant on hyperglycemia, and wholesome food” (Godo Shusei Co., Ltd., priority 1992, dated 1995) are described below.

The target of test [1] is T1, sucrase (carbohydrase derived from rabbit small intestine mucous membrane) (Oryctolagus cuniculus, UniProt P07768).
T1 construct: suspended again in a 10 mM potassium phosphate buffer (pH: 7.0), thereby obtaining a crude enzyme suspension; from tissue; host or cells: rabbit small intestine (title: mucous membrane), homogenate, 60,000×g precipitate
T1 sequence (P07768 1008-1827 limits assumed): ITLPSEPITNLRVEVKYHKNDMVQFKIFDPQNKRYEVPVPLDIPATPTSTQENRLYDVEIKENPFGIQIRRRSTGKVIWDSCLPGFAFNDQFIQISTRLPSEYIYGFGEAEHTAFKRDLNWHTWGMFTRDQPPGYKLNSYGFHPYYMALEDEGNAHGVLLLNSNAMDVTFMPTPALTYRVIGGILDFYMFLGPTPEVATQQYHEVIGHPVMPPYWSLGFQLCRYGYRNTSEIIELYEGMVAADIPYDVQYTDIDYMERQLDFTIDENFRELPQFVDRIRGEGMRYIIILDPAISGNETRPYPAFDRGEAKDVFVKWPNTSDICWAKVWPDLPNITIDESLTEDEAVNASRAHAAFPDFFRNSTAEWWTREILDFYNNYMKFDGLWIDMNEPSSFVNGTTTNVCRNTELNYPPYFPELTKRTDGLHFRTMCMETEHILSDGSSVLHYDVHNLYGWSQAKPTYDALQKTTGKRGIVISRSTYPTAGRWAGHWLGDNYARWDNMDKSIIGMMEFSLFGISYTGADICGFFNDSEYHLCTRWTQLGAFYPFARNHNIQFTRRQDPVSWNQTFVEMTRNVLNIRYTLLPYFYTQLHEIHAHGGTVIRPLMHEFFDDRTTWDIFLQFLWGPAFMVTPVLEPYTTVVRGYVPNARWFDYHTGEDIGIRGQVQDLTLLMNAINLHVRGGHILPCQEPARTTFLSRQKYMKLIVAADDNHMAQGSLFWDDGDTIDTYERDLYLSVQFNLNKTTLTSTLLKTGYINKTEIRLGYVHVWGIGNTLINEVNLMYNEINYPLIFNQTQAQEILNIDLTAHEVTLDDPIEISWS
T1 sequence (P07768 2-1007 partner limits assumed): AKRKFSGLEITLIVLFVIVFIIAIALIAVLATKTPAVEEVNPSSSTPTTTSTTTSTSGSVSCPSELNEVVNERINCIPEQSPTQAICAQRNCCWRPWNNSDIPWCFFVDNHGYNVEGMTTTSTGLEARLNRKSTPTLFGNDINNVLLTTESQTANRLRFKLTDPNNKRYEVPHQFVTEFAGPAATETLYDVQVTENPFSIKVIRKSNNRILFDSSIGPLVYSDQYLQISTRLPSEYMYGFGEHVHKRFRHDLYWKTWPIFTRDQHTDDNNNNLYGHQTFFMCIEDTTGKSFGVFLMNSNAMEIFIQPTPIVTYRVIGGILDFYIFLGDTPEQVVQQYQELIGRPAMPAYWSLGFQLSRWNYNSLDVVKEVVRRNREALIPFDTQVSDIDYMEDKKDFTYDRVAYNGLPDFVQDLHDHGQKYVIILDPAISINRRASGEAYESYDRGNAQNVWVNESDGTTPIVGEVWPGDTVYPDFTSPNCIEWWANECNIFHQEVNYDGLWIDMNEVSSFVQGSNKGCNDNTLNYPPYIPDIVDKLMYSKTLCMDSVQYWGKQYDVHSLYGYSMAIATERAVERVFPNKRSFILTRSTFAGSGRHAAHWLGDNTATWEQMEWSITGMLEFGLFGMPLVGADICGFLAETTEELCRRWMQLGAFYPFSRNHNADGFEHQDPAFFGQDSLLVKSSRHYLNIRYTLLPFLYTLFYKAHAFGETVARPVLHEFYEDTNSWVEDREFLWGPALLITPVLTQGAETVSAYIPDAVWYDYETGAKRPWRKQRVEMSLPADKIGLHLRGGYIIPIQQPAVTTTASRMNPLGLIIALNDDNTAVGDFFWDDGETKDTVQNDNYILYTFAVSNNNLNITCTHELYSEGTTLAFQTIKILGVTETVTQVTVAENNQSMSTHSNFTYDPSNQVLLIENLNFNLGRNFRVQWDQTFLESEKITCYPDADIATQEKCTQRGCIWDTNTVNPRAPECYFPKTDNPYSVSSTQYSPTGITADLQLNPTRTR
Description: Action to inhibit the hydrolytic activity of homogenate prepared from rabbit small intestine mucous membrane: sucrase inhibition. The format is biochemical. The note with it: for inhibition at 250 µg/mL / inhibition at 500 µg/mL / inhibition at 1000 µg/mL / inhibition at 2000 µg/mL: 0.25 h, substrate sucrose 20 mM, pH 6.8, 37° C., 15 minutes, read-out: Sucrase inhibition rate; for inhibition at 250 µg/mL: 25 mg/dl; for inhibition at 500 µg/mL: 50 mg/dl; for inhibition at 1000 µg/mL: 100 mg/dl; for inhibition at 2000 µg/mL: 200 mg/dl. As to the method: (§1) (Action to inhibit the hydrolytic activity of homogenate prepared from rabbit small intestine mucous membrane to carbohydrate)
(§2) A native kind of white rabbits (weight: 3.0-3.5 kg) were sacrificed by exsanguination to take out their small intestines.
(§3) After freezing and thawing the small intestines thus taken out, they were homogenized in a 5 mM EDTA buffer (pH: 7.0) and subjected to centrifugation for 60 minutes at 60,000×g. Precipitate thus formed was collected and suspended again in a 10 mM potassium phosphate buffer (pH: 7.0), thereby obtaining a crude enzyme suspension.
(§4) Sucrose (20 mM) and maltose (20 mM) were used as substrates.
(§5) Each reaction mixture was formulated so as to contain 350 microliters of a 100 mM maleate buffer (pH: 6.8), 100 microliters of a substrate solution, 50 microliters of the crude enzyme suspension and 50 microliters of a test solution. Substances to be tested were separately dissolved in a maleate buffer (pH: 6.8) before use.
(§6) Respective reactions were conducted for 15 minutes at 37° C.

Test [2] concerns maltase (carbohydrase derived from rabbit small intestine mucous membrane). In words: Action to inhibit the hydrolytic activity of homogenate prepared from rabbit small intestine mucous membrane: maltase inhibition. As to conditions: for Maltase inhibition rate: substrate maltose 20 mM, pH 6.8, 37° C., 15 minutes. The format is biochemical. The method, then:
as §1, §2, §3, §4, §5, §6

Test [3] deals with rise in blood sugar. Description: Action to depress the rise in blood sugar after sucrose loading to mice. The format is in vivo, ICR male mice. As to conditions: for Rise in blood sugar / action to depress the rise in blood sugar due to sucrose loading (in words): sucrose 1 g/kg; for Rise in blood sugar: dose 100 mg/kg oral, average ± standard error; for action to depress the rise in blood sugar due to sucrose loading (in words): orally 25, 50 and 100 mg/kg (L-arabinose, D-xylose) or 100 mg/kg (others); for action to depress the rise in blood sugar for sucrose or starch loading (in words): summary statement.
Description: (Action to depress the rise in blood sugar after carbohydrate loading)
ICR male mice (weight 30-35 g) were used in proportions of 5 mice per group.
After causing the mice to fast, sucrose or starch was orally administered in a proportion of 1 g/kg to the mice of each group, and at the same time substances to be tested were orally given to mice of their corresponding groups.
Blood was collected from the retroorbital sinus of each mouse before carbohydrate loading and upon elapsed times of 30 minutes, 60 minutes and 120 minutes after the loading to determine the concentration of glucose in the blood plasma by the glucose oxidase method.

For orientation: inhibition means the drop in the measured response relative to a control, in per cent. With `O=CC[C@@H](O)[C@@H](O)[C@H](O)CO` [2-Deoxy-D-galactose, 2-deoxy-D-galactose], in test [1], the “sucrase-inhibiting action (in words)” value is recorded as “strong sucrase-inhibiting action”, the inhibition at 250 µg/mL was determined as 13.7%, the inhibition at 500 µg/mL came out at 15.5% and the inhibition at 1000 µg/mL is 21.6%. Besides, the inhibition at 2000 µg/mL in test [1] amounted to 34.8%. Also, in test [2], the “maltase-inhibiting action (in words)” value is “strong sucrase-inhibiting action and maltase-inhibiting action”. Further, the Maltase inhibition rate in test [2] (25 mg/dl) is reported as 11.2%. Further, in test [2] (50 mg/dl), the Maltase inhibition rate is listed as 13.4%. Besides, the Maltase inhibition rate in test [2] (100 mg/dl) is on record as 19.3%. Also, the Maltase inhibition rate in test [2] (200 mg/dl) was found to be 32.8%. In addition, in test [3] (after 30 min.), the “Rise in blood sugar” value is recorded as 61.1 Δmg/dl. In test [3] (after 60 min.), the “Rise in blood sugar” value is on record as 50.8 Δmg/dl. Further, the “Rise in blood sugar” value in test [3] (after 120 min.) is reported as 26.2 Δmg/dl. Further, in test [3], the “action to depress the rise in blood sugar due to sucrose loading (in words)” value (shortened to “action … to sucrose loading (in words)”) was “significantly depressed” and the “action to depress the rise in blood sugar for sucrose or starch loading (in words)” value is “effective action to depress the rise in blood sugar”.

With `O=C[C@@H](O)[C@@H](O)[C@H](O)CO` [D-Lyxose, D-lyxose], in test [1], the “sucrase-inhibiting action (in words)” value was “inhibiting actions second to these” and the inhibition at 2000 µg/mL was 23.4%. The “maltase-inhibiting action (in words)” value in test [2] is recorded as “inhibiting actions second to these”. Moreover, the Maltase inhibition rate in test [2] (200 mg/dl) is given as 22.3%. The “Rise in blood sugar” value in test [3] (after 30 min.) is on record as 62.7 Δmg/dl. The “Rise in blood sugar” value in test [3] (after 60 min.) is 57.0 Δmg/dl. Also, in test [3], the “action … to sucrose loading (in words)” value was “significantly depressed” and the “action to depress the rise in blood sugar for sucrose or starch loading (in words)” value was “effective action to depress the rise in blood sugar”.

For the compound `O=C[C@H](O)[C@H](O)[C@H](O)CO` [D-Ribose, D-ribose], in test [1], the “sucrase-inhibiting action (in words)” value is given as “strong sucrase-inhibiting action”, the inhibition at 250 µg/mL was 13.7%, the inhibition at 500 µg/mL was 17.8% and the inhibition at 1000 µg/mL was 34%. In test [1], the inhibition at 2000 µg/mL is 33.4%. The “maltase-inhibiting action (in words)” value in test [2] was “strong sucrase-inhibiting action and maltase-inhibiting action”. The Maltase inhibition rate in test [2] (25 mg/dl) is listed as 13.5%. Besides, the Maltase inhibition rate in test [2] (50 mg/dl) came to 18.4%. Further, in test [2] (100 mg/dl), the Maltase inhibition rate was found to be 33.3%. For the same compound, in test [2] (200 mg/dl), the Maltase inhibition rate is recorded as 46.5%. For the same compound, the “Rise in blood sugar” value in test [3] (after 30 min.) is on record as 61.2 Δmg/dl. Moreover, the “Rise in blood sugar” value in test [3] (after 60 min.) was 48.5 Δmg/dl. For the same compound, in test [3], the “action … to sucrose loading (in words)” value is “significantly depressed” and the “action to depress the rise in blood sugar for sucrose or starch loading (in words)” value is given as “effective action to depress the rise in blood sugar”.

Take `O=C(CO)[C@H](O)[C@H](O)CO` [D-Ribulose, D-ribulose]: in test [1], the “sucrase-inhibiting action (in words)” value was “inhibiting actions second to these” and the inhibition at 2000 µg/mL was 21.7%. Also, the “maltase-inhibiting action (in words)” value in test [2] is recorded as “inhibiting actions second to these”. Also, the Maltase inhibition rate in test [2] (200 mg/dl) was determined as 20.1%. Besides, the “Rise in blood sugar” value in test [3] (after 30 min.) is on record as 65.6 Δmg/dl. Further, the “Rise in blood sugar” value in test [3] (after 60 min.) was 56.3 Δmg/dl. Further, the “Rise in blood sugar” value in test [3] (after 120 min.) is recorded as 28.1 Δmg/dl. Also, in test [3], the “action … to sucrose loading (in words)” value is “significantly depressed” and the “action to depress the rise in blood sugar for sucrose or starch loading (in words)” value is given as “effective action to depress the rise in blood sugar”.

As to `O=C(CO)[C@@H](O)[C@H](O)[C@@H](O)CO` [L-Sorbose, L-sorbose, reference compound], in test [1], the “sucrase-inhibiting action (in words)” value is given as “no or little inhibiting action” and the inhibition at 2000 µg/mL is 5.1%. Moreover, in test [2], the “maltase-inhibiting action (in words)” value is given as “no or little inhibiting action”. In test [2] (200 mg/dl), the Maltase inhibition rate came out at 7.5%.

As to `O=C(CO)[C@H](O)[C@@H](O)CO` [L-Xylulose, L-xylulose, reference compound], in test [1], the “sucrase-inhibiting action (in words)” value is “no or little inhibiting action” and the inhibition at 2000 µg/mL came to 10.8%. Also, the “maltase-inhibiting action (in words)” value in test [2] is listed as “no or little inhibiting action”. In addition, the Maltase inhibition rate in test [2] (200 mg/dl) was 6.4%.

For the compound `OC[C@H]1O[C@@H](O[C@H]2[C@H](O)[C@H](O)C(O)O[C@@H]2CO)[C@@H](O)[C@@H](O)[C@@H]1O` (stereo partly drawn) [reference compound], the inhibition at 2000 µg/mL in test [1] was determined as 0.9%. The Maltase inhibition rate in test [2] (200 mg/dl) turned out to be 0.6%.

On to `OC[C@H]1O[C@@H](O[C@H]2[C@H](O)[C@H](O)[C@H](O[C@H]3[C@H](O)[C@H](O)C(O)O[C@@H]3CO)O[C@@H]2CO)[C@@H](O)[C@@H](O)[C@@H]1O` (stereo partly drawn) [reference compound], for which, in test [1], the inhibition at 2000 µg/mL stood at 2%. Moreover, the Maltase inhibition rate in test [2] (200 mg/dl) came to 1.3%.

As to `OC[C@H]1O[C@@H](O[C@H]2[C@H](O)[C@H](O)[C@H](O[C@H]3[C@H](O)[C@H](O)[C@H](O[C@H]4[C@H](O)[C@H](O)C(O)O[C@@H]4CO)O[C@@H]3CO)O[C@@H]2CO)[C@@H](O)[C@@H](O)[C@@H]1O` (stereo partly drawn) [reference compound], the inhibition at 2000 µg/mL in test [1] is -0.3%. For the same compound, the Maltase inhibition rate in test [2] (200 mg/dl) worked out at 0.7%.

As for `OC[C@H]1O[C@@H](O[C@H]2[C@H](O)[C@H](O)[C@H](O[C@H]3[C@H](O)[C@H](O)[C@H](O[C@H]4[C@H](O)[C@H](O)[C@H](O[C@H]5[C@H](O)[C@H](O)C(O)O[C@@H]5CO)O[C@@H]4CO)O[C@@H]3CO)O[C@@H]2CO)[C@@H](O)[C@@H](O)[C@@H]1O` (stereo partly drawn) [reference compound], the inhibition at 2000 µg/mL in test [1] is 4%. The Maltase inhibition rate in test [2] (200 mg/dl) was found to be 3.5%.

For `OC1OC[C@@H](O[C@@H]2OC[C@@H](O)[C@H](O)[C@H]2O)[C@H](O)[C@H]1O` (stereo partly drawn) [reference compound], the inhibition at 2000 µg/mL in test [1] amounted to 10.7%. For the same compound, the Maltase inhibition rate in test [2] (200 mg/dl) came out at 5.5%.

As to `OC1OC[C@@H](O[C@@H]2OC[C@@H](O[C@@H]3OC[C@@H](O)[C@H](O)[C@H]3O)[C@H](O)[C@H]2O)[C@H](O)[C@H]1O` (stereo partly drawn) [reference compound], the inhibition at 2000 µg/mL in test [1] amounted to 2.7%. Besides, the Maltase inhibition rate in test [2] (200 mg/dl) was 3.6%.

Regarding `OC1OC[C@@H](O[C@@H]2OC[C@@H](O[C@@H]3OC[C@@H](O[C@@H]4OC[C@@H](O)[C@H](O)[C@H]4O)[C@H](O)[C@H]3O)[C@H](O)[C@H]2O)[C@H](O)[C@H]1O` (stereo partly drawn) [reference compound], in test [1], the inhibition at 2000 µg/mL came out at 3.5%. In addition, the Maltase inhibition rate in test [2] (200 mg/dl) is reported as 2.0%.

Take `OC1OC[C@@H](O[C@@H]2OC[C@@H](O[C@@H]3OC[C@@H](O[C@@H]4OC[C@@H](O[C@@H]5OC[C@@H](O)[C@H](O)[C@H]5O)[C@H](O)[C@H]4O)[C@H](O)[C@H]3O)[C@H](O)[C@H]2O)[C@H](O)[C@H]1O` (stereo partly drawn) [reference compound]: in test [1], the inhibition at 2000 µg/mL is -0.5%. Besides, in test [2] (200 mg/dl), the Maltase inhibition rate worked out at 1.5%.

As for `OC1OC[C@@H](O[C@@H]2OC[C@@H](O[C@@H]3OC[C@@H](O[C@@H]4OC[C@@H](O[C@@H]5OC[C@@H](O[C@@H]6OC[C@@H](O)[C@H](O)[C@H]6O)[C@H](O)[C@H]5O)[C@H](O)[C@H]4O)[C@H](O)[C@H]3O)[C@H](O)[C@H]2O)[C@H](O)[C@H]1O` (stereo partly drawn) [reference compound], the inhibition at 2000 µg/mL in test [1] is -7.9%. Besides, the Maltase inhibition rate in test [2] (200 mg/dl) is on record as -5.1%.
